The source of these data is patent US9624188B2, “IDO inhibitors” (BRISTOL-MYERS SQUIBB COMPANY, priority 2013, dated 2017).

Each structure is given as a SMILES string.

The assay deals with Human IDO1 (Homo sapiens (Human), UniProt P14902). In words: IDO Kynurenine Assay with Human IDO1/HEK293 Cells. The format is cell-based. Particulars: 20 hours incubation, kynurenine detected with Ehrlich reagent, absorbance at 490 nm, read-out: HEK Human IDO-1 IC50. The protocol: IDO Kynurenine Assay with Human IDO1/HEK293 Cells
Sequence of Human IDO1 (P14902 whole entry): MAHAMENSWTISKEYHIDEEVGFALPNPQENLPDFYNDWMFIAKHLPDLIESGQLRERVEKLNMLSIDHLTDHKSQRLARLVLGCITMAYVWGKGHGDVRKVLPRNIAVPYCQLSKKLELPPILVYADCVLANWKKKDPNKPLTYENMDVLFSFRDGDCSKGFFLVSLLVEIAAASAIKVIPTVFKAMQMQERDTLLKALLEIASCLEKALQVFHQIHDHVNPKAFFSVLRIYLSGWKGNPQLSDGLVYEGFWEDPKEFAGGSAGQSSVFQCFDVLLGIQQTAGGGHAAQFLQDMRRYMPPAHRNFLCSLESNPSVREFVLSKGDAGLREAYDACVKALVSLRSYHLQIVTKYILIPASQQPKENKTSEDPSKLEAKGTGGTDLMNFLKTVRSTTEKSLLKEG
Human IDO1/HEK293 cells were seeded at 10,000 cells per 50 uL per well with RPMI/phenol red free media contains 10% FBS in a 384-well black wall clear bottom tissue culture plate (Matrix Technologies LLC) 125 nL of certain concentration of compound was then added to each well using ECHO liquid handling systems. The cells were incubated for 20 hours in 37° C. incubator with 5% CO2.
The compound treatments were stopped by adding Trichloroacetic Acid (Sigma-Aldrich) to a final concentration at 0.2%. The cell plate was further incubated at 50° C. for 30 minute. The equal volume supernatant (20 uL) and 0.2% (w/v) Ehrlich reagent (4-dimethylaminobenzaldehyde, Sigma-Aldrich) in glacial acetic acid were mixed in a new clear bottom 384-well plate. This plate was then incubated at room temperature for 30 minute. The absorbance at 490 nm was measured on Envision plate reader.
Compound IC50 values were calculated using the counts of 500 nM of a reference standard treatment as one hundred percent inhibition, and counts of no compound but DMSO treatment as zero percent inhibition.
Regarding `CC(C)CN(CC(C)C)c1ccc([C@H](C)CC(=O)O)cc1NC(=O)Nc1cncnc1` [Example 37, (R)-3-(4-(diisobutylamino)-3-(3-(pyrimidin-5-yl)ureido)phenyl)butanoic acid], the IC50 amounted to 11 nM.
With `Cc1ccc(NC(=O)Nc2cc(C(C)CC(=O)O)ccc2N(CC(C)C)C2CCCCC2)cc1` (racemic) [Example 49, 3-(4-(cyclohexyl(isobutyl)amino)-3-(3-(p-tolyl)ureido)phenyl)butanoic acid], the IC50 was 1 nM.
`CC(C)CN(CC(C)C)c1ccc(C(CC(=O)O)C(F)(F)F)cc1NC(=O)Nc1ccc(F)cc1F` (centres unmarked) [Example 30, 3-(3-(3-(2,4-difluorophenyl)ureido)-4-(diisobutylamino)phenyl)-4,4,4-trifluorobutanoic acid]: the IC50 is 0.7 nM.
Under `Cc1cc(NC(=O)Nc2cc([C@@H](C)CC(=O)O)ccc2N(CC(C)C)CC(C)C)no1` [Example 44, (S)-3-(4-(diisobutylamino)-3-(3-(5-methylisoxazol-3-yl)ureido)phenyl)butanoic acid] stands 87 nM; under `Cc1ncc(NC(=O)Nc2cc([C@H](C)CC(=O)O)ccc2N(CC(C)C)CC(C)C)cn1` [Example 40, (R)-3-(4-(diisobutylamino)-3-(3-(2-methylpyrimidin-5-yl)ureido)phenyl)butanoic acid], 22 nM.
Under `Cc1cc(NC(=O)Nc2cc(C(C)CC(=O)O)ccc2N(CC(C)C)CC(C)C)on1` (racemic) [Example 13, 3-(4-(diisobutylamino)-3-(3-(3-methylisoxazol-5-yl)ureido)phenyl)butanoic acid] stands 3 nM.
For `CC(C)CN(CC(C)C)c1ccc([C@H](C)CC(=O)O)cc1NC(=O)Cc1ccc(C#N)cc1` [Example 45, (R)-3-(3-(2-(4-cyanophenyl)acetamido)-4-(diisobutylamino)phenyl)butanoic acid] the value was 5 nM; for `Cc1ccc(NC(=O)Nc2cc(C3(CC(=O)O)COC3)ccc2N(CC(C)C)CC(C)C)cc1` [Example 2, 2-(3-(4-(diisobutylamino)-3-(3-(p-tolyl)ureido)phenyl)oxetan-3-yl)acetic acid], 205 nM; for `Cc1ccc(NC(=O)Nc2cc([C@@H](C)CC(=O)O)ccc2N(CC(C)C)CC(C)C)cc1` [Example 43, (S)-3-(4-(diisobutylamino)-3-(3-(p-tolyl)ureido)phenyl)butanoic acid], 17 nM.
Regarding `CC(C)CN(CC(C)C)c1ccc([C@@H](C)CC(=O)O)cc1NC(=O)Nc1cncnc1` [Example 38, (S)-3-(4-(diisobutylamino)-3-(3-(pyrimidin-5-yl)ureido)phenyl)butanoic acid], the IC50 was 29 nM.
For `Cc1ncc(NC(=O)Nc2cc([C@@H](C)CC(=O)O)ccc2N(CC(C)C)CC(C)C)cn1` [Example 39, (S)-3-(4-(diisobutylamino)-3-(3-(2-methylpyrimidin-5-yl)ureido)phenyl)butanoic acid] the value was 169 nM.
